Six molecules from PubChem BioAssay (NCI) can be followed below.

Several values for one entry are separate records, joined by “and”; a condition that tells them apart may be missing. Identical values can stand only once.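 Dose response: 5 concentrations. Exposure: 48 h. Format: 96-well plates. Endpoint: linear interpolation; highest concentration if not reached. At the GI50, growth is halved. At the TGI there is no net growth.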 Bounds are passed on as bounds.

Test systems include A498 renal; MALME-3M melanoma; MCF7 breast; SF-539 CNS; SK-MEL-2 melanoma; SK-MEL-5 melanoma; SNB-19 CNS; SNB-75 CNS; ACHN renal; HCT-116 colon.
Holding throughout (test): NCI anticancer screen, dose series, 48 h

For `CCC1(OC(=O)CN)C(=O)OCc2c1cc1n(c2=O)Cc2cc3cc4c(cc3nc2-1)OCO4` (configuration not stated), the GI50 in the test on A498 renal is 16.1 nM and 38 nM; in the test with MALME-3M melanoma it was 287 nM; with MCF7 breast it was below 10 nM; in the test on SF-539 CNS it was below 10 nM; with SK-MEL-2 melanoma, 135 nM and 221 nM; with SK-MEL-5 melanoma it was below 10 nM. The GI50 in the test with SNB-19 CNS is below 10 nM; with SNB-75 CNS it was 20.7 nM and < 10 nM. Moreover, the TGI with A498 renal is 78.7 nM and 241 nM; with MALME-3M melanoma it was 1420 nM; in the test on MCF7 breast, above 100000 nM; with SF-539 CNS, 16.1 nM and 16.5 nM; in the test with SK-MEL-2 melanoma, 3150 nM and 1070 nM; with SK-MEL-5 melanoma, 75.9 nM. For the same molecule, the TGI in the test with SNB-19 CNS is 27300 nM and 3140 nM.
Take `CCN(CCCl)c1cccc(NC(=O)c2ccc(C(=O)Nc3cccc(CN(C)C)c3)cc2)c1`: the TGI is 502 nM in the test on A498 renal; 624 nM in the test with ACHN renal; 12400 nM in the test on HCT-116 colon; 166 nM in the test with MALME-3M melanoma; 1090 nM with MCF7 breast; 611 nM in the test with SF-539 CNS. Also, the figures for the TGI in the test with SK-MEL-2 melanoma, in the test on SNB-19 CNS and in the test with SNB-75 CNS were 85.6 nM, 887 nM and 759 nM, respectively.
As to `CS(=O)(=O)[O-].CS(=O)(=O)[O-].NC1CCCCC1N.[Pt+4]` (configuration not stated), the GI50 in the test on A498 renal is above 100000 nM; in the test on HCT-116 colon, 37400 nM; in the test on MALME-3M melanoma, above 100000 nM; in the test with MCF7 breast, 66300 nM; in the test with SF-539 CNS, above 100000 nM; in the test on SK-MEL-2 melanoma it was above 100000 nM. For the same molecule, the GI50 with SK-MEL-5 melanoma is 48400 nM; in the test on SNB-19 CNS it was above 100000 nM; with SNB-75 CNS it was above 68000 nM. In addition, the TGI in the test on A498 renal, in the test on HCT-116 colon, with MALME-3M melanoma, with MCF7 breast, in the test with SF-539 CNS and in the test on SK-MEL-2 melanoma was above 100000 nM in each case. In addition, the TGI in the test with SK-MEL-5 melanoma, in the test on SNB-19 CNS and in the test with SNB-75 CNS was above 100000 nM in each case.
In the case of `CCN(CC)/[N+]([O-])=N/O`, the TGI in the test with A498 renal, in the test with ACHN renal, in the test on HCT-116 colon, with SF-539 CNS, with SK-MEL-2 melanoma and with SK-MEL-5 melanoma was above 100000 nM each time. The molecule also returned a TGI in the test with SNB-19 CNS above 100000 nM.
Take `Cn1c(=O)n(CC2CS2)c2ccccc21` (configuration not stated): the TGI in the test with ACHN renal, in the test with HCT-116 colon, in the test with MALME-3M melanoma, in the test on SF-539 CNS, with SK-MEL-2 melanoma and in the test on SNB-19 CNS was above 100000 nM throughout. For the same molecule, in the test with SNB-75 CNS, the TGI was above 100000 nM.
As to `CC1(C)[C@@H](OC(N)=O)C=C[C@]2(CO)[C@H]3CC[C@]4(C)[C@@H](c5ccc(=O)oc5)[C@@H](Cl)C[C@]4(O)C3=CC[C@@H]12`, the GI50 in the test with A498 renal is 12.2 nM; in the test with ACHN renal, below 0.1 nM; in the test on HCT-116 colon, below 0.1 nM; in the test on MALME-3M melanoma, 2.39 nM; in the test with MCF7 breast, below 0.1 nM; with SK-MEL-2 melanoma, 4.02 nM. Further, the GI50 was 2.69 nM in the test on SK-MEL-5 melanoma; 8.87 nM and 2.5 nM in the test with SNB-19 CNS. In addition, the TGI in the test with A498 renal turned out to be 55.7 nM; in the test with ACHN renal it was 2.62 nM; in the test on HCT-116 colon, 10.4 nM; in the test with MALME-3M melanoma, 5.24 nM; in the test with MCF7 breast, 29.9 nM; with SK-MEL-2 melanoma it was 29.4 nM. In addition, the TGI in the test with SK-MEL-5 melanoma was 15.8 nM; with SNB-19 CNS it was 22.8 nM and 46.1 nM.
